For four compounds, IC50 results are on record in BindingDB's records for patent US9718819 (Merck Sharp & Dohme, 2017).

The structures appear in SMILES notation.

In this assay the target is Gag-Pol polyprotein (Human immunodeficiency virus type 1 group M subtype B (isolate HXB2), UniProt P04585). As to the kind of experiment: HIV-1 Reverse Transcriptase Inhibitory Assay. The note with it: pH 7.8; 25 °C. From the text:
The heterodimeric nucleic acid substrate used in the HIV-1 RT polymerase reactions was generated by annealing the DNA primer, biotinylated pD500 (Sigma Aldrich, USA, 5′-biotin-ttg aaa tga ctg cgg tac ggc-3′), SEQ ID NO. 1 to the nucleotide RNA template t500 (derived from hepatitis C virus [HCV] sequence, IBA, Germany, 5′-GAGGUUCAGGUGGUUUCCACCGCAACACAAUCCUUCCUGGCGACCUGCGUCAACGGCGUGUGUUGGACCGUUUACCAUGGUGCUGGCUCAAAGACCUUAGCCGGCCCAAAGGGGCCAAUCACCCAGAUGUACACUAAUGUGGACCAGGACCUCGUCGGCUGGCAGGCGCCCCCCGGGGCGCGUUCCUUGACACCAUGCACCUGUGGCAGCUCAGACCUUUACUUGGUCACGAGACAUGCUGACGUCAUUCCGGUGCGCCGGCGGGGCGACAGUAGGGGGAGCCUGCUCUCCCCCAGGCCUGUCUCCUACUUGAAGGGCUCUUCGGGUGGUCCACUGCUCUGCCCUUCGGGGCACGCUGUGGGCAUCUUCCGGGCUGCCGUAUGCACCCGGGGGGUUGCGAAGGCGGUGGACUUUGUGCCCGUAGAGUCCAUGGAAACUACUAUGCGGUCUCCGGUCUUCACGGACAACUCAUCCCCCCCGGCCGUACCGCAGUCAUUUCAA-3′), SEQ ID NO 2). […] The mixture was then preincubated on an orbital shaker for 30 min at room temperature in microtiter plates (Costar 3365, Corning, USA). A polymerization reaction was initiated by the addition of RNA template/pD500 DNA primer hybrid (16.6 nM final of RNA/DNA hybrid) and dNTPs (2 μM dATP, dGTP, dCTP and 66.6 nM Ru-dUTP (Meso Scale Discovery, USA)). Plate was sealed and incubated for 5-10 min at room temperature on an orbital shaker. Plate was then incubated for 90 min at 37° C. and reactions quenched with 60 μl quenching buffer (50 mM EDTA, 0.7% BSA, 0.7% Tween-20, 0.017% sodium azide in PBS). The resulting solution was incubated at room temperature for an additional 5 min and then 50 μL was transferred to pre-blocked Avidin plates (L15AA, Meso Scale Discovery). Each well of Avidin plate was blocked for 1 h at room temperature with 100 μL 5% BSA in PBS. Blocking solution was removed by tapping vigorously on filter paper to remove all excess liquid. Reaction on pre-blocked avidin plate proceeded for 60 min at room temperature and then contents removed by tapping vigorously on filter paper to remove all excess liquid. After washing plate 3 times with 150 μL 1×PBS and blotting dry between cycles, 150 μL 1× Read Buffer T (4× Read Buffer T, Meso Scale Discovery) was added and incubated for 5 min at room temperature before counting on a Sector Imager […] (Meso Scale Discovery). Titration curves and IC50 values were calculated using a four parameter logisitc fit according to standard procedures. Briefly, % Inhibition=100×((sample raw value)−(mean value of the low control or 0% inhibition))/((mean value of wells representing 100% inhbition)−(mean value of 0% inhbition)). […]
`COc1cc(-c2cc(Cn3cnc(C(F)(F)F)c(Oc4cc(Cl)cc(C#N)c4)c3=O)n[nH]c2=O)ccn1` [US9718819, 79] gave an IC50 of 6 nM.
Regarding `Cc1cncc(-c2cc(Cn3cnc(C(F)(F)F)c(Oc4cc(Cl)cc(C#N)c4)c3=O)n[nH]c2=O)c1` [US9718819, 80], inhibition was half-maximal at 14 nM (IC50).
`N#Cc1cc(Cl)cc(Oc2c(C(F)(F)F)ncn(Cc3cc(-c4cn[nH]c4)n[nH]c3=O)c2=O)c1` [US9718819, 118] gave a 50% inhibitory concentration (IC50) of 7 nM. This IC50 lies about 2-fold lower than the previous one.
`Cn1[nH]c(=O)c(Cn2cnc(C(F)(F)F)c(Oc3cc(Cl)cc(C#N)c3)c2=O)cc1=O` [US9718819, 127] registered an IC50 of 434 nM.

As usually defined, the IC50 is the concentration that gives 50% inhibition. The low end stands for greater potency in that assay, the high end for weaker potency in that assay.
